Consider three substances from PMC9459017, “Pharmacokinetic and pharmacodynamic similarity evaluation between an insulin glargine biosimilar product and Lantus® in healthy subjects: Pharmacokinetic parameters of both parent insulin glargine and M1 were used as endpoints” (Frontiers in Pharmacology, 2022).

Series [1] concerns healthy volunteers. The experiment in a line: 24 h euglycemic clamp, glucose infusion rate (pharmacodynamics). Conditions: single 0.4 U/kg s.c., linear mixed-effects model, N = 38. The format is in vivo, human.
In series [2] the test system is healthy volunteers. The series is described as above. The class given is in vivo, human. Conditions: single 0.4 U/kg s.c., N = 38; for AUCGIR(0–24 h), geometric mean / Time to GIRmax / AUCGIR(0–12 h), geometric mean / AUCGIR(12–24 h), geometric mean / GIRmax, geometric mean: healthy volunteers; for AUCGIR(0–24 h), geometric mean: 24 h euglycemic clamp 0.3 mmol/L below fasting glucose; for AUCGIR(0–24 h), geometric mean / AUCGIR(0–12 h), geometric mean / AUCGIR(12–24 h), geometric mean / GIRmax, geometric mean: raw GIR not smoothed; for Time to GIRmax / AUCGIR(0–12 h), geometric mean / AUCGIR(12–24 h), geometric mean / GIRmax, geometric mean: 24 h euglycemic clamp; for Time to GIRmax: median (range); for AUCGIR(0–12 h), intra-subject variability / AUCGIR(0–24 h), intra-subject variability / AUCGIR(12–24 h), intra-subject variability / GIRmax, intra-subject variability: replicate crossover. An excerpt: This PK/PD comparative study was a randomized, double-blind, single-dose, two-treatment, four-period, replicate crossover, euglycemic clamp study. Subjects were randomly assigned to one of two dosing sequences and received 0.4 U/kg reference drug on two occasions and 0.4 U/kg test drug on two occasions. The dosing nurses were not blind to the treatment allocation, whereas the subjects and the clamping operators (who adjusted the glucose infusion rate) were blinded. Subjects were admitted to the clinical research unit on the night before each period. On day 1 of each period, all doses of test and reference drug were administered by subcutaneous injection, and then, subjects underwent a euglycemic clamp procedure until 24 h post-dose. There was a washout period of 10–14 days between study periods. For each subject, the 24 h euglycemic clamp procedure aimed to maintain the clamp value at 0.3 mmol/L below the subject’s mean fasting glucose level in each period. Each subject began fasting from 20:00 on the day prior to dosing in each period and continued fasting during the clamp study. Body weight and vital signs were measured after the bladder was emptied, and the clamp study was performed after resting for at least 30 min. One upper limb was cannulated for the infusion of glucose (20% dextrose solution in water). The contralateral upper limb was cannulated for PK blood sample collection and blood glucose concentration measurement. Blood glucose level was measured by using an automatic blood glucose analyzer every 20 min from 0 to 3.0 h, every 10 min from 3.0 to 12.0 h, every 15 min from 12.0 to 16.0 h, every 30 min from 16.0 to 21.0 h, and every 15 min from 21.0 to 24.0 h. After each glucose measurement, the glucose infusion rate (GIR) was manually adjusted by the operator based on the experience of the change rate of blood glucose to maintain the blood glucose concentration within ±10% of the clamp target. During the entire procedure, subjects should stay awake, decumbent, or semi-decumbent as much as possible and relieve themselves in time with the help of medical staff. PD parameters were calculated with WinNonlin Version 8.2 using the trapezoidal rule. Raw GIR profiles were not smoothed before calculation of PD parameters. Area under the glucose infusion rate–time curve (AUCGIR(0–24 h)) and peak of glucose infusion rate (GIRmax) were measured as primary endpoints. Partial area under the glucose infusion rate–time curve (AUCGIR(0–12 h) and AUCGIR(12–24 h)) was the secondary PD parameter. Another meaningful PD endpoint was time to GIRmax. The primary and secondary PD parameters, AUCGIR(0–24 h), GIRmax, AUCGIR(0–12 h), and AUCGIR(12–24 h), were log transformed prior to analysis. The same linear mixed-effects model as PK comparison was used for the PD comparison. For each PD parameter, the difference in geometric means along with the 90% CIs was back transformed to produce the ratio of geometric means and the CI comparing the test drug to reference drug. PD similarity was to be concluded if the […] for both primary and secondary PD parameters were contained within the interval of 80.00%–125.00%. Intra-subject and inter-subject variability were reported for each primary and secondary PD parameters.

Details of series [3]: species or system human. The following applies: in vivo, sc; for Tmax of the parent insulin glargine: human. An excerpt:
This PK/PD comparative study was a randomized, double-blind, single-dose, two-treatment, four-period, replicate crossover, euglycemic clamp study. Subjects were randomly assigned to one of two dosing sequences and received 0.4 U/kg reference drug on two occasions and 0.4 U/kg test drug on two occasions. The dosing nurses were not blind to the treatment allocation, whereas the subjects and the clamping operators (who adjusted the glucose infusion rate) were blinded. Subjects were admitted to the clinical research unit on the night before each period. On day 1 of each period, all doses of test and reference drug were administered by subcutaneous injection, and then, subjects underwent a euglycemic clamp procedure until 24 h post-dose. There was a washout period of 10–14 days between study periods. The test drug, manufactured by Wanbang Biopharmaceuticals, was supplied as a 100 U/ml solution in 3 ml cartridges. The reference drug was procured commercially as cartridges. The test drug or reference drug was administrated by subcutaneous injection using a pen about 5 cm from the left or right side of the umbilicus, as a 0.4 U/kg dose. In each period, serial blood samples for the quantification of insulin glargine, its metabolites (M1 and M2), and C-peptide were collected at 30 min prior to dosing and 0, 1, 3, 5, 6, 7, 8, 9, 10, 11, 12, 13, 14, 16, 18, 21, and 24 h after dose using vacuum tubes with an EDTA anticoagulant. Concentrations of insulin glargine and its metabolites (M1 and M2) in plasma were simultaneously quantified by an ultra-high-performance liquid chromatography tandem mass spectrometry (UHPLC-MS/MS) method developed and fully validated before the clinical sample analysis. […] Pharmacokinetic parameters were calculated with WinNonlin Version 8.2 (Pharsight Corporation, Mountain View, California, United States) using a non-compartmental analysis method. […] Time to reach Cmax (Tmax) was also calculated. […]

The test system of the next series is endogenous insulin. As to the kind of experiment: Plasma C-peptide reduction during clamp (suppression of endogenous insulin). The class given is in vivo, human. The following applies: single 0.4 U/kg s.c., healthy volunteers, plasma C-peptide by ELISA during 24 h clamp, mean ± SD. The protocol:
In each period, serial blood samples for the quantification of insulin glargine, its metabolites (M1 and M2), and C-peptide were collected at 30 min prior to dosing and 0, 1, 3, 5, 6, 7, 8, 9, 10, 11, 12, 13, 14, 16, 18, 21, and 24 h after dose using vacuum tubes with an EDTA anticoagulant.
C-peptide in plasma was quantified by a fully validated enzyme-linked immunosorbent assay (ELISA) method, of which the calibration range was 28.9–925 pmol/L.
C-peptide concentration was measured in parallel to insulin concentrations throughout the experiment to compare the extent and consistency of suppression of endogenous insulin between the two drugs.
The quality of the performance of the clamp study was estimated from two aspects. On one hand, the blood glucose level during the entire clamping process was evaluated by calculating the mean difference between the blood glucose concentration and the clamp target, mean square deviation, and coefficient of variation of the blood glucose concentrations. On the other hand, the plasma C-peptide concentration profiles and the ratio of C-peptide reduction were evaluated.

For series [4] the following is noted: acidic pH; precipitates in the subcutaneous tissue after injection to form a depot; ref Levien et al., 2002; cited from earlier work. An excerpt: Then, the drug is slowly released from the depot. […] These observed phenomena are consistent with those of a previous study ([Bolli et al., 2012]). Based on the comparison ...
Series [5] in a line: Matrix stability of insulin glargine in whole blood and plasma. The format is in vitro ADME. The following applies: human whole blood and plasma; addressed by strict temperature control and EDTA anticoagulant during sample collection and pre-treatment. An excerpt:
The bioanalytical method applied in this study was with a relatively higher sensitivity of 75.0 pg/ml for the parent insulin glargine ([Bhatia et al., 2018]; [Crutchlow et al., 2018]). The instability of the insulin glargine in whole blood and plasma was addressed by strict temperature control and selection of EDTA anticoagulant during sample collection and pre-treatment. […] After subcutaneous injection, the concentrations of parent insulin glargine increased to a relatively high level within 3 h, and then, a relatively flat concentration–time profile lasting for at least 12 h post-dose was observed, which implied a prolonged absorption of insulin glargine.

Another series deals with healthy subjects. The experiment in a line: Safety assessment in healthy subjects. The following applies: single 0.4 U/kg s.c. doses, healthy male subjects.

Experimental for healthy subjects: Prior to dose and at various time points post-dose and post-study, assessments of safety and tolerability were conducted by monitoring adverse events (AEs), vital signs, physical examinations, laboratory tests (hematology, blood biochemistry, urinalysis, and coagulation function), and 12-lead ECG.

In the case of “recombinant insulin glargine [Test drug]”, in the series with healthy volunteers [1], the “AUCGIR(0–12 h), ratio of geometric means test/reference” value is on record as 100.52%; the “AUCGIR(0–24 h), ratio of geometric means test/reference” value came to 105.41%; the “AUCGIR(12–24 h), ratio of geometric means test/reference” value is listed as 105.91%; the “GIRmax, ratio of geometric means test/reference” value stood at 105.00%. Further, in the series with healthy volunteers [2], the “AUCGIR(0–24 h), geometric mean” value was 36.3 mg/kg/min·h; the “Time to GIRmax” value was 12.3 (3.85, 21.5); the “AUCGIR(0–12 h), geometric mean” value is recorded as 13.52 mg/kg/min·h; the “AUCGIR(12–24 h), geometric mean” value is recorded as 22.45 mg/kg/min·h. Also, in the series on healthy volunteers [2], the “GIRmax, geometric mean” value came to 2.66 mg/kg/min; the “AUCGIR(0–12 h), intra-subject variability” value is listed as 70.7%; the “AUCGIR(0–24 h), intra-subject variability” value was 36.4%; the “AUCGIR(12–24 h), intra-subject variability” value amounted to 27.3%. Moreover, in the series with healthy volunteers [2], the “GIRmax, intra-subject variability” value came out at 26.5%. For the same substance, the “Tmax of the parent insulin glargine” value in series [3] was 8 (1,16) h. For the same substance, in the series with endogenous insulin, the “Ratio of C-peptide reduction” value is listed as 56.5% ± 14.1.

For insulin glargine, the “Duration of relatively flat concentration–time profile post-dose” value in series [3] was “at least 12 h”. Further, the Solubility result in series [4] is given as “soluble at an acidic pH”. Moreover, the “Stability in whole blood and plasma” value in series [5] was “instability”.

Turning to Lantus [Reference drug], in the series with healthy subjects, the “Clinically significant changes in vital signs, physical examinations, laboratory tests or 12-lead ECG” value is on record as “no changes” and the “Safety profiles with regard to AEs” value is reported as “comparable”. Also, in the series with healthy volunteers [2], the “AUCGIR(0–24 h), geometric mean” value was determined as 34.4 mg/kg/min·h; the “Time to GIRmax” value is on record as 11.8 (4, 19.0); the “AUCGIR(0–12 h), geometric mean” value was found to be 13.45 mg/kg/min·h; the “AUCGIR(12–24 h), geometric mean” value is given as 21.19 mg/kg/min·h. For the same substance, in the series on healthy volunteers [2], the “GIRmax, geometric mean” value was 2.54 mg/kg/min; the “AUCGIR(0–12 h), intra-subject variability” value came out at 39.0%; the “AUCGIR(0–24 h), intra-subject variability” value is listed as 28.3%; the “AUCGIR(12–24 h), intra-subject variability” value is on record as 20.2%. Besides, in the series with healthy volunteers [2], the “GIRmax, intra-subject variability” value was 25.5%. Besides, the “Tmax of the parent insulin glargine” value in series [3] is listed as 3 (1,16) h. Moreover, in the series on endogenous insulin, the “Ratio of C-peptide reduction” value is listed as 57.5% ± 14.4.
